{"source": "patent US11083714B2", "about": "“Selective anti-cancer agent effective for prevention and treatment” (Molecular International Research, Inc., priority 2018, dated 2021)", "key": {"[1]": {"system": "glioblastoma cell lines U-87MG, DBTRG-05MG, A172", "assay": "Glioblastoma cell viability and proliferation assay (ATP)", "type": "cell-based", "settings": "3 nM to 30 uM, 72 hr", "method": "FIG. 9. Glioblastoma in vitro cell viability and proliferation assay after treatment with de-ethylflavopereirine. Glioblastoma cell lines U-87MG, DBTRG-05MG, A172, and AM-38 were tested. Temozolomide, an oral chemotherapy drug known to treat some brain cancers, was used as a control. The concentrations of temozolomide (circles) or compound 13-9-1 (squares) used were 3 nM, 10 nM, 30 nM, 100 nM, 1 uM, 3 uM, 10 uM, and 30 uM. Each of the cell lines was treated with de-ethylflavopereirine for 72 hr before measuring cytotoxicity and inhibition of cell proliferation. Number of viable cells in culture based on quantitation of ATP. IC50 was determined as indicated below each graph.\nThe dose-response curves for the anti-brain cancer drug temozolomide are shown for comparison."}, "PANC-1 cells": {"system": "PANC-1 cells", "assay": "Spheroid formation (cancer stem cells)", "type": "cell-based", "method": "FIG. 22. PANC-1 cell suspensions were treated at concentrations of 0 μM (negative control), 2.5 μM, 5.0 μM, and 10.0 μM de-ethylflavopereirine then examined for the presence of spheroids.\nFIG. 23. Primary spheroids from first round were collected and seeded for secondary spheroid formation. Following treatment with concentrations of 0 μM (negative control), 2.5 μM, 5.0 μM, and 10.0 μM de-ethylflavopereirine, suspensions were examined.\nIn vitro, cancer stem cells form spheroids: clusters of cancer cells surrounding a cancer stem cell. Inhibition of spheroid formation is a test for anti-cancer stem cell activity of a compound."}, "[2]": {"system": "PANC-1 pancreatic cancer cells", "assay": "Anchorage independent colony formation in soft agar", "type": "cell-based", "settings": "10 μM or 15 μM, 20 days; listed as De-ethylflavopereirine", "description": "FIG. 13. Colony formation in soft agar of PANC-1 pancreatic cancer cells with or without de-ethylflavopereirine treatment.\nAnchorage independent colony formation assay in soft agar was used to test long-term survival (20 days) of tumorigenic pancreatic cancer cells after exposure to de-ethylflavopereirine. PANC-1 cells formed colonies at the rate of 12% when untreated. […] No tumorigenic cancer cells survived after exposure to compound 13-9-1 (FIG. 13)."}, "[3]": {"type": "in vivo", "settings": "100, 150 and 200 mg/kg, groups of two, 48 hr observation", "method": "A study with synthetic compounds 13-7-2 (flavopereirine) and 13-9-1 (de-ethylflavopereirine) was conducted to compare the toxicity of the two compounds in animals. The compounds were dissolved in phosphate buffered saline for administration. Both compounds were injected IP in male immunodeficient (homozygous recessive scid/scid, beige/beige) mice.\nCompound 13-7-2 was injected at a dose of 100 mg/kg, 150 mg/kg, and 200 mg/kg in mice divided in groups of two. […] One mouse injected with 150 mg/kg died at 6 hr whereas one mouse injected with 200 mg/kg dose died at 24 hr. One mouse injected with 100 mg/kg dose died at 48 hr.\nCompound 13-9-1 was injected at a dose of 100 mg/kg, 150 mg/kg, and 200 mg/kg in mice divided in groups of two."}, "[4]": {"assay": "Tissue distribution after oral administration", "type": "in vivo, mice", "settings": "oral 200 mg/kg; for Tmax: mouse", "description": "The highest concentrations (highest Cmax) were found in kidney, colon and spleen. Highest AUC was found with the lung, followed by spleen, colon, and kidney.\nLung had the largest AUC and the fastest Tmax. […] Compound 13-9-1 was accumulated in the lung relatively fast, and was eliminated relatively slowly. The concentration was maintained in lung for a long time relative to other organs. At 24 hr, the concentration in the lung was still 6.67 nmoles/mg protein, 38% of the peak of 17.50 at 2 hr.\nColon had the second highest Cmax among all the organs tested, and an AUC only less than lung and spleen. […] Tmax was 3 hr. At 24 hr, the concentration was 9.31 nmoles/mg protein, 29% of the peak of 31.63."}, "HT-29 tumors": {"system": "HT-29 tumors", "assay": "Subcutaneous HT-29 colon cancer xenografts", "type": "in vivo", "settings": "for toxicity and deaths of tumor-bearing mice: mouse, in vivo; for TUNEL staining of tumor sections: tumors removed after treatment", "method": "FIG. 30. Effect of de-ethylflavopereirine on HT-29 colon cancer tumor volume. Nude mice with subcutaneous xenografts of human HT-29 colon cancer cells were grouped as untreated control (squares), administered compound 13-9-1 (triangles), or administered IFL as conventional chemotherapy regimen (circles). IFL is a combination of irinotecan, fluorouracil, and leucovorin often used for treatment of colorectal cancer. […] Animals were treated for two and a half weeks.\nFIGS. 31 to 33 show TUNEL staining of HT-29 tumors removed from untreated mice (control) in FIG. 31, mice administered de-ethylflavopereirine in FIG. 32, or mice administered IFL in FIG. 33. […] After treatments were concluded, tumors were removed from the animals, fixed, thin sectioned, and stained by the TUNEL method to identify cells undergoing apoptosis. In FIG. 31, the borders of tumors from control animals show intact tissue and the absence of TUNEL staining. […] The color images clearly distinguish the dark purple/brown color of cells undergoing apoptotis from the blue color of intact tumor cells.\nIn this example, the anti-tumor activity of de-ethylflavopereirine was compared with the activity of IFL (a combination of irinotecan, fluorouracil, and leucovorin). IFL has been routinely used in the treatment of colorectal cancer, but is associated with significant toxicity. The toxicity is so severe that some have encapsulated irinotecan in liposomes to reduce negative side effects.\nA comparison of the direct impact of de-ethylflavopereirine and IFL on tumors is depicted in FIGS. 32 and 33. Terminal deoxynucleotidyl transferase dUTP nick-end labeling (TUNEL) is a method for detecting DNA fragmentation by labeling the 3′-hydroxyl termini in the double-strand DNA breaks generated during apoptosis. Tumor sections from the two groups and an untreated control group were immunostained by the TUNEL method to specifically identify cells undergoing apoptosis."}, "[5]": {"settings": "listed as de-ethylflavopereirine"}}, "note": "Entries after “also recorded” stand apart in the source; their conditions may differ. Like-named read-outs stand apart in the source and are kept apart here.", "data": [{"smiles": "c1ccc2c(c1)[nH]c1c2cc[n+]2ccccc12", "note": "[Compound 13-9-1, 12H-indolo[2,3-a]quinolizin-5-ium]", "values": [{"measurement": "glioblastoma cell viability", "setting": "[1]", "value": "dose-dependent decrease in glioblastoma cell viability"}, {"measurement": "secondary spheroid formation", "setting": "PANC-1 cells; 2.5 μM", "value": "significant inhibition"}, {"measurement": "primary spheroid formation", "setting": "PANC-1 cells; 5 μM and 10 μM", "value": "significantly inhibited primary spheroid formation"}, {"measurement": "secondary spheroid formation", "setting": "PANC-1 cells; 5 μM and 10 μM", "value": "completely inhibited"}, {"measurement": "colony formation in soft agar", "setting": "[2]", "value": "completely inhibited formation of PANC-1 colonies; also recorded: completely inhibited colony formation"}, {"measurement": "deaths after IP injection", "setting": "[3]", "value": "None of the mice injected with compound 13-9-1 died"}, {"measurement": "deaths after IP injection", "setting": "[3]; [5]", "value": "no mice injected IP with de-ethylflavopereirine died"}, {"measurement": "Cmax", "setting": "[4]; adrenal gland", "value": "17.62 nmoles/mg of protein"}, {"measurement": "Cmax", "setting": "[4]; brain", "value": "1.20 nmoles/mg of protein"}, {"measurement": "Cmax", "setting": "[4]; colon", "value": "31.63 nmoles/mg of protein"}, {"measurement": "concentration at 24 hr", "setting": "[4]; colon", "value": 9.31, "unit": "nmoles/mg protein"}, {"measurement": "concentration at 24 hr as share of the peak", "setting": "[4]; colon", "value": 29, "unit": "%"}, {"measurement": "Cmax", "setting": "[4]; heart", "value": "7.82 nmoles/mg of protein"}, {"measurement": "Cmax", "setting": "[4]; kidney", "value": "55.69 nmoles/mg of protein"}, {"measurement": "Cmax", "setting": "[4]; liver", "value": "22.21 nmoles/mg of protein"}, {"measurement": "Cmax", "setting": "[4]; lung", "value": "17.50 nmoles/mg of protein"}, {"measurement": "concentration at 24 hr", "setting": "[4]; lung", "value": 6.67, "unit": "nmoles/mg protein"}, {"measurement": "concentration at 24 hr as share of the peak", "setting": "[4]; lung", "value": 38, "unit": "%"}, {"measurement": "Tmax", "setting": "[4]; adrenal gland", "value": 4, "unit": "h"}, {"measurement": "Tmax", "setting": "[4]; brain", "value": 4, "unit": "h"}, {"measurement": "Tmax", "setting": "[4]; colon", "value": 3, "unit": "h"}, {"measurement": "Tmax", "setting": "[4]; heart", "value": 4, "unit": "h"}, {"measurement": "Tmax", "setting": "[4]; kidney", "value": 4, "unit": "h"}, {"measurement": "Tmax", "setting": "[4]; liver", "value": 4, "unit": "h"}, {"measurement": "Tmax", "setting": "[4]; lung", "value": 2, "unit": "h"}, {"measurement": "Tmax", "setting": "[4]; muscle", "value": 4, "unit": "h"}, {"measurement": "Tmax", "setting": "[4]; ovary", "value": 4, "unit": "h"}, {"measurement": "Tmax", "setting": "[4]; pancreas", "value": 4, "unit": "h"}, {"measurement": "Tmax", "setting": "[4]; spleen", "value": 4, "unit": "h"}, {"measurement": "Cmax", "setting": "[4]; muscle", "value": "5.67 nmoles/mg of protein"}, {"measurement": "tissue distribution", "setting": "[4]", "value": "found in all tested organs and tissues, including the brain"}, {"measurement": "Cmax", "setting": "[4]; ovary", "value": "11.17 nmoles/mg of protein"}, {"measurement": "Cmax", "setting": "[4]; pancreas", "value": "16.95 nmoles/mg of protein"}, {"measurement": "Cmax", "setting": "[4]; spleen", "value": "30.01 nmoles/mg of protein"}, {"measurement": "toxicity and deaths of tumor-bearing mice", "setting": "HT-29 tumors", "value": "did not have toxic effects on the mice"}, {"measurement": "toxicity and deaths of tumor-bearing mice", "setting": "HT-29 tumors; nude, 2.5 weeks", "value": "No animals treated with compound 13-9-1 died"}, {"measurement": "HT-29 tumor volume", "setting": "HT-29 tumors; treated for two and a half weeks", "value": "reduced HT-29 tumor volumes"}, {"measurement": "TUNEL staining of tumor sections", "setting": "HT-29 tumors", "value": "apoptosis in zones near the periphery of the tumors"}, {"measurement": "TUNEL staining of tumor sections", "setting": "HT-29 tumors; [5]", "value": "cells on the periphery were undergoing apoptosis"}]}]}
